Source: the NIST ThermoML archive (doi:10.1016/j.fluid.2005.07.008)
Several values for one entry are separate records, joined by “and”; a condition that tells them apart may be missing. Identical values can stand only once. Numbers after ± are expanded uncertainties.

Conditions: Liquid

Row | vapor or sublimation pressure (298.15 K) | vapor or sublimation pressure (303.15 K) | vapor or sublimation pressure (308.15 K) | vapor or sublimation pressure (313.15 K) | vapor or sublimation pressure (318.15 K) | vapor or sublimation pressure (323.15 K) | SMILES
1 | 7.876 ± 0.32 kPa | 10.47 ± 0.38 kPa | 13.77 ± 0.47 kPa | 17.93 ± 0.57 kPa |  |  | CCO [ethanol]
2 | 2.786 ± 0.19 kPa | 3.826 ± 0.22 kPa | 5.199 ± 0.25 kPa | 6.986 ± 0.3 kPa |  |  | CCCO [propan-1-ol]
3 | 12.7 ± 0.44 kPa | 15.92 ± 0.52 kPa | 19.66 ± 0.61 kPa | 24.33 ± 0.73 kPa |  |  | c1ccccc1 [benzene]
4 | 16.97 ± 0.071 kPa and 16.96 ± 0.55 kPa | 21.88 ± 0.086 kPa and 21.88 ± 0.67 kPa | 27.96 ± 0.11 kPa and 27.96 ± 0.82 kPa | 35.44 ± 0.13 kPa and 35.45 ± 1 kPa | 44.54 ± 0.16 kPa | 55.58 ± 0.19 kPa | CO [methanol]
